Numbers after ± are expanded uncertainties.

The conditions of the data set: Liquid; for mass density: 298.15 K, 101.33 kPa, Vibrating tube method.

A word on the mass density: it is mass per unit of volume. Consider `CCc1ccccc1` [ethylbenzene], for which the mass density came out at 862.57 ± 0.16 kg/m3 and the Normal boiling temperature was 136.16 ± 0.5 °C.
The corresponding values for `CCC(C)CO` (stereo not given) [2-methyl-1-butanol] are 814.83 ± 0.17 kg/m3 and 128.76 ± 0.5 °C.
Regarding `Cc1ccc(C)cc1` [1,4-dimethylbenzene], the mass density amounted to 856.54 ± 0.16 kg/m3 and the Normal boiling temperature turned out to be 138.28 ± 0.5 °C.
As for `Cc1ccccc1C` [1,2-dimethylbenzene], the mass density worked out at 875.81 ± 0.16 kg/m3 and the Normal boiling temperature came to 144.40 ± 0.5 °C.
The corresponding values for `Cc1cccc(C)c1` [1,3-dimethylbenzene] are 860.06 ± 0.16 kg/m3 and 139.13 ± 0.5 °C.
